Values after ≈ are worked out from the molar mass of the structure shown.
Legend:
[1] = system: P. aeruginosa PAO1 (wild-type strain); test: MIC broth microdilution, P. aeruginosa PAO1; format: cell-based, Pseudomonas aeruginosa
Source text: (§1) The results presented above implied that seven pyrrolidine-2,3-dione derivatives inhibited the activity of ^PaPBP3 in vitro. Consequently, we were very interested in investigating the potential of these compounds to affect the growth of P. aeruginosa. Two P. aeruginosa bacterial strains (the wild-type PAO1 and the isogenic ΔmexB ΔmexX ΔmexCD-oprJ efflux pump mutant) were used to determine the MIC and the potential role of the main P. aeruginosa efflux systems in compound uptake. To increase the antibacterial sensitivity of the tested P. aeruginosa isolates to the potential inhibitors, we performed MIC experiments in the presence and absence of a sub-MIC concentration (4 µg/mL) of the outer membrane permeabilising polymyxin B nonapeptide (PMBN). […] Thus, we concluded that the physicochemical properties of the pyrrolidine-2,3-dione compounds were perhaps not yet favourable enough to cross the P. aeruginosa cell envelope without a permeabiliser because of their high hydrophobicity.
(§2) The wild-type P.aeruginosa PAO1 and the isogenic P. aeruginosa K2896 ΔmexBΔmexXYΔmexCD-oprJ isolates were used to determine the MIC in the presence and absence of PMBN [48].
(§3) MIC determination was performed via standard broth microdilution according to the Clinical & Laboratory Standards institute guidelines. Overnight colonies grown on BD-Columbia agar with 5% Sheep Blood (Becton Dickinson, Franklin Lakes, NJ, USA), were diluted in Mueller Hinton Broth 2 cation adjusted (MH+) medium (Thermo Fisher Scientific) to a concentration of 5 × 10^5 CFU/mL. Serial dilutions (1:2) of test compounds were incubated at 37 °C with 5 × 10^4 bacteria in a final volume of 100 μL. Sterile and growth controls in the presence of 1% DMSO and PMBN if the case, and the positive controls, aztreonam (AZT) and tigecycline (TIG) were included in the experiments (Table S4). The MICs were determined visually after 18 h at 37 °C and confirmed by the addition of 10% PrestoBlue (ThermoFisher Scientific) reagent according to the manufacture’s protocol. The fluorescence signal of PrestoBlue reagent was measured at Ex/Em: 550/595 nm after 30 min incubation at 37 °C using at a ClarioStar microplate reader (BMG Labtech). PrestoBlue reduction occurs in the presence of living cells and consequently turns red in colour and is highly fluorescent.

[2] = system: P. aeruginosa K2896 ΔmexBΔmexXYΔmexCD-oprJ; test: MIC broth microdilution, P. aeruginosa K2896 efflux mutant; format: cell-based, Pseudomonas aeruginosa
Source text: as §1, §2, §3

E. coli Neumann = test: MIC broth microdilution, E. coli; format: cell-based; details: Escherichia coli; PMBN 0 µg/mL, control compounds; read-out: MIC (µM) E. coli Newmann
Method: as §3

[3] = system: K. pneumoniae clinical isolate; test: MIC broth microdilution, K. pneumoniae; format: cell-based; details: control compounds
Method: as §3

A. baumannii ATCC15308 = test: MIC broth microdilution, A. baumannii; format: cell-based; details: Acinetobacter baumannii, control compounds
Method: as §3

S. pneumoniae = test: MIC broth microdilution, S. pneumoniae; format: cell-based; details: Streptococcus pneumoniae, 18 h; PMBN 0 µg/mL, control compounds; read-out: MIC (µM) S. pneumoniae
Method: as §3

B. subtilis 168 = test: MIC broth microdilution, B. subtilis; format: cell-based; details: Bacillus subtilis, 168, 18 h; PMBN 0 µg/mL, control compounds
Method: as §3

S. aureus 133 = test: MIC broth microdilution, S. aureus; format: cell-based; details: Staphylococcus aureus, 133, 18 h; PMBN 0 µg/mL, control compounds
Method: as §3

Q: For `C[C@H]1[C@H](NC(=O)/C(=N\OC(C)(C)C(=O)O)c2csc(N)n2)C(=O)N1S(=O)(=O)O` [Aztreonam, aztreonam, reference compound], which MIC ([1]; Pseudomonas aeruginosa, PAO1, PMBN 0 µg/mL (absence of PMBN)) is on record?
A: The MIC was greater than 1.2 µM.

Q: What about the “MIC (µM) against P. aeruginosa PAO1” value ([1]; wild-type strain, with 4 µg/mL PMBN) of the same compound?
A: The value was 0.58 µM (≈ 0.253 µg/mL).

Q: And the MIC ([2]; Pseudomonas aeruginosa, read-out: MIC (µM) P. aeruginosa K2896)?
A: The MIC was 0.575 µM (≈ 0.25 µg/mL).

Q: And the “MIC (µM) against P. aeruginosa K28926” value ([2]; ΔmexB, ΔmexX, ΔmexCD-oprJ, with 4 µg/mL PMBN)?
A: The value was 0.29 µM (≈ 0.126 µg/mL).

Q: What about the MIC (E. coli Neumann) of the same compound?
A: The MIC was 0.287 µM (≈ 0.125 µg/mL).

Q: And the MIC ([3]; PMBN 0 µg/mL)?
A: The MIC was 0.143 µM (≈ 0.0623 µg/mL).

Q: And the MIC ([3]; PMBN 50 µg/mL)?
A: Its MIC is 0.071 µM (≈ 0.0309 µg/mL).

Q: What about the MIC (A. baumannii ATCC15308; ATCC15308, PMBN 0 µg/mL) of the same compound?
A: The MIC was greater than 1.2 µM.

Q: And the MIC (A. baumannii ATCC15308; ATCC15308, PMBN 50 µg/mL)?
A: Its MIC is 0.58 µM (≈ 0.253 µg/mL).

Q: What about the MIC (S. pneumoniae) of the same compound?
A: Its MIC is greater than 1.2 µM.

Q: What about the MIC (B. subtilis 168) of the same compound?
A: Its MIC is greater than 1.2 µM.

Q: And the MIC (S. aureus 133)?
A: Its MIC is greater than 1.2 µM.
